Molecules are shown by their SMILES. Where “and” joins values, the source holds several entries; their conditions need not be identical. Equal entries are not always repeated.

Data set [1] is described as follows: Solubility.
A short description of data set [2]: Stability studies on guanfacine prodrugs in buffers. It counts as physicochemical.
Data set [3] is described as follows: Comparative bioavailability study of guanfacine in monkeys given guanfacine or guanfacine prodrug. The conditions noted are these: for Prodrug Cmax: monkeys, 0.5 mg/kg guanfacine free base equivalents. It counts as in vivo, monkey. As to the method:
Blood samples were taken at various times after administration and submitted to analysis for the parent drug and prodrug using a qualified LC-MS-MS assay. The following pharmacokinetic parameters derived from the plasma analytical data were determined using Win Nonlin;

The mark [4] stands for this setting: DMSO, organic solvent or mixture, Solubility, in DMSO.
Setting [5] is: water/CH3CN (1:1), aqueous with cosolvent or surfactant or cyclodextrin, Solubility, in water/CH3CN (1:1).
Setting [6] is: pH 1.2, 37° C., 0.1M HCl/NaCl buffer, 1 h.
[7] abbreviates: pH 1.2, 37° C., 0.1M HCl/NaCl buffer, time 0.
The mark [8] stands for this setting: pH 3.0, 20° C., 0.1M citrate buffer, 2 h.
The mark [9] stands for this setting: pH 3.0, 20° C., 0.1M citrate buffer, time 0.
Setting [10] is: pH 6.8, 37° C., 0.1M phosphate buffer, 2 h.
The mark [11] stands for this setting: pH 6.8, 37° C., 0.1M phosphate buffer, time 0.
Setting [12] is: pH 7.4, 37° C., 0.1M phosphate buffer, 2 h.
The mark [13] stands for this setting: pH 7.4, 37° C., 0.1M phosphate buffer, time 0.
The mark [14] stands for this setting: pH 1.2, 37° C., 0.1M HCl/NaCl buffer, 1 h, Hydrochloride.

On to `CCCCOC(=O)NC(N)=NC(=O)Cc1c(Cl)cccc1Cl.Cl` [Compound 6, 1-{N′-[2-(2,6-Dichloro-phenyl)-acetyl]-guanidinocarbonyloxy}butane Hydrochloride], for which the solubility was over 10000 µg/mL in data set [1] (setting [4]); under 1000 µg/mL in data set [1] (water, Solubility, in water); over 1000 µg/mL in data set [1] (setting [5]). Moreover, the Active drug in data set [2] (setting [6]), in data set [2] (setting [7]), in data set [2] (setting [8]), in data set [2] (setting [9]), in data set [2] (setting [10]) and in data set [2] (setting [11]) was 0.0 in each case. Besides, the Active drug in data set [2] (setting [12]) and in data set [2] (setting [13]) was 0.0 in each case. Further, the Pro-drug in data set [2] (setting [6]) is 94.0; in data set [2] (setting [7]) it was 100; in data set [2] (pH 3.0, 20° C., 0.1M citrate buffer, 2 h, listed as Guanfacine N-Butyl Carbamate Hydrochloride, Hydrochloride) it was 94.6 and 94.9; in data set [2] (setting [9]) it was 100; in data set [2] (pH 6.8, 37° C., 0.1M phosphate buffer, 2 h, listed as Guanfacine N-Butyl Carbamate Hydrochloride, Hydrochloride) it was 90.9 and 90.7; in data set [2] (setting [11]), 100. In addition, the Pro-drug was 90.7 and 91.0 in data set [2] (pH 7.4, 37° C., 0.1M phosphate buffer, 2 h, listed as Guanfacine N-Butyl Carbamate Hydrochloride, Hydrochloride); 100 in data set [2] (setting [13]). Also, the “Prodrug Cmax” value in data set [3] is on record as “BLQ”.

Consider `CCSC(=O)NC(N)=NC(=O)Cc1c(Cl)cccc1Cl.Cl` [Compound 30, Guanfacine Ethanethiol Carbamate Hydrochloride], for which the solubility in data set [1] (in DMSO) was over 10000 µg/mL; in data set [1] (in water), under 1000 µg/mL; in data set [1] (in water/CH3CN (1:2)) it was over 5000 µg/mL. For the same compound, the Active drug in data set [2] (setting [14]) was 10.1 and 11.0; in data set [2] (setting [7]), 0.0; in data set [2] (setting [8]), 0.0; in data set [2] (setting [9]) it was 0.0; in data set [2] (setting [10]) it was 0.0; in data set [2] (setting [11]), 0.0. Moreover, the Active drug in data set [2] (setting [12]) and in data set [2] (setting [13]) was 0.0 throughout. Further, the Pro-drug is 81.0 and 80.4 in data set [2] (setting [14]); 100 in data set [2] (setting [7]); 85.6 and 84.8 in data set [2] (pH 3.0, 20° C., 0.1M citrate buffer, 2 h, Hydrochloride); 100 in data set [2] (setting [9]); 93.0 and 92.5 in data set [2] (pH 6.8, 37° C., 0.1M phosphate buffer, 2 h, Hydrochloride); 100 in data set [2] (setting [11]). The Pro-drug in data set [2] (pH 7.4, 37° C., 0.1M phosphate buffer, 2 h, Hydrochloride) is 94.5 and 95.2; in data set [2] (setting [13]) it was 100. Moreover, in data set [3], the “Prodrug Cmax” value is on record as “BLQ”.

`CCCOC(=O)NC(N)=NC(=O)Cc1c(Cl)cccc1Cl.Cl` [Compound 4, 1-{N′-[2-(2,6-Dichloro-phenyl)acetyl]-guanidinocarbonyloxy}propane Hydrochloride]: the solubility in data set [1] (setting [4]) is over 10000 µg/mL; in data set [1] (water, Solubility, in water) it was under 1000 µg/mL; in data set [1] (setting [5]), over 1000 µg/mL. Besides, the Active drug in data set [2] (setting [6]), in data set [2] (setting [7]), in data set [2] (setting [8]), in data set [2] (setting [9]), in data set [2] (setting [10]) and in data set [2] (setting [11]) was 0.0 throughout. The Active drug in data set [2] (setting [12]) and in data set [2] (setting [13]) was 0.0 throughout. For the same compound, the Pro-drug is 94.4 and 94.6 in data set [2] (pH 1.2, 37° C., 0.1M HCl/NaCl buffer, 1 h, listed as Guanfacine N-Propyl Carbamate Hydrochloride, Hydrochloride); 100 in data set [2] (setting [7]); 94.0 and 94.4 in data set [2] (pH 3.0, 20° C., 0.1M citrate buffer, 2 h, listed as Guanfacine N-Propyl Carbamate Hydrochloride, Hydrochloride); 100 in data set [2] (setting [9]); 95.8 and 96.4 in data set [2] (pH 6.8, 37° C., 0.1M phosphate buffer, 2 h, listed as Guanfacine N-Propyl Carbamate Hydrochloride, Hydrochloride); 100 in data set [2] (setting [11]). Moreover, the Pro-drug in data set [2] (pH 7.4, 37° C., 0.1M phosphate buffer, 2 h, listed as Guanfacine N-Propyl Carbamate Hydrochloride, Hydrochloride) was 96.3 and 96.0; in data set [2] (setting [13]), 100. Further, the “Prodrug Cmax” value in data set [3] is “BLQ”.

Turning to `NC(=NC(=O)Cc1c(Cl)cccc1Cl)NC(=O)OCCCO` [Compound 22, 3-{N′-[2-(2,6-Dichloro-phenyl)-acetyl]-guanidinocarbonyloxy}propan-1-ol], the solubility in data set [1] (setting [4]) is over 10000 µg/mL; in data set [1] (water, Solubility, in water), under 1000 µg/mL; in data set [1] (setting [5]), over 10000 µg/mL. In addition, the Active drug in data set [2] (setting [6]), in data set [2] (setting [7]), in data set [2] (setting [8]), in data set [2] (setting [9]), in data set [2] (setting [10]) and in data set [2] (setting [11]) was 0.0 in each case. Moreover, the Active drug in data set [2] (setting [12]) and in data set [2] (setting [13]) was 0.0 each time. Further, the Pro-drug is 94.8 and 94.9 in data set [2] (pH 1.2, 37° C., 0.1M HCl/NaCl buffer, 1 h, listed as Guanfacine (3-Hydroxypropyl) Carbamate); 100 in data set [2] (setting [7]); 98.1 and 98.3 in data set [2] (pH 3.0, 20° C., 0.1M citrate buffer, 2 h, listed as Guanfacine (3-Hydroxypropyl) Carbamate); 100 in data set [2] (setting [9]); 99.2 and 99.7 in data set [2] (pH 6.8, 37° C., 0.1M phosphate buffer, 2 h, listed as Guanfacine (3-Hydroxypropyl) Carbamate); 100 in data set [2] (setting [11]). Also, the results for the Pro-drug in data set [2] (setting [12]) and in data set [2] (setting [13]) were 98.2 and 100, respectively. Besides, the Cmax in data set [3] (monkey, plasma, po, 0.5 mg/kg) was 3.49 ng/mL.

`CC(C)OC(=O)NC(N)=NC(=O)Cc1c(Cl)cccc1Cl.Cl` [Compound 5, 2-{N′-[2-(2,6-Dichloro-phenyl)acetyl]-guanidinocarbonyloxy}propane Hydrochloride]: the solubility in data set [1] (3.0 mL CH3CN/3.0 mL H2O, aqueous with cosolvent or surfactant or cyclodextrin, Solubility, in 3.0 mL CH3CN/3.0 mL H2O) is over 833 µg/mL; in data set [1] (setting [4]), over 10000 µg/mL; in data set [1] (water, Solubility, in water) it was under 1000 µg/mL. Also, in data set [3], the “Prodrug Cmax” value was “BLQ”.

For `CC(C)(C)COC(=O)NC(N)=NC(=O)Cc1c(Cl)cccc1Cl.Cl` [Compound 9, 1-{N′[2-(2,6-Dichloro-phenyl)-acetyl]guanidinocarbonyloxy}-2,2-dimethylpropane Hydrochloride], the solubility in data set [1] (setting [4]) was over 10000 µg/mL; in data set [1] (water, Solubility, in water), under 1000 µg/mL; in data set [1] (setting [5]), over 1000 µg/mL. The Active drug in data set [2] (setting [6]), in data set [2] (setting [7]), in data set [2] (setting [8]), in data set [2] (setting [9]), in data set [2] (setting [10]) and in data set [2] (setting [11]) was 0.0 throughout. Besides, the Active drug in data set [2] (setting [12]) and in data set [2] (setting [13]) was 0.0 in each case. Besides, the Pro-drug is 94.7 and 93.9 in data set [2] (pH 1.2, 37° C., 0.1M HCl/NaCl buffer, 1 h, listed as Guanfacine Neopentyl Carbamate Hydrochloride, Hydrochloride); 100 in data set [2] (setting [7]); 96.1 and 96.8 in data set [2] (pH 3.0, 20° C., 0.1M citrate buffer, 2 h, listed as Guanfacine Neopentyl Carbamate Hydrochloride, Hydrochloride); 100 in data set [2] (setting [9]); 98.3 and 97.9 in data set [2] (pH 6.8, 37° C., 0.1M phosphate buffer, 2 h, listed as Guanfacine Neopentyl Carbamate Hydrochloride, Hydrochloride); 100 in data set [2] (setting [11]). For the same compound, the Pro-drug in data set [2] (pH 7.4, 37° C., 0.1M phosphate buffer, 2 h, listed as Guanfacine Neopentyl Carbamate Hydrochloride, Hydrochloride) was 99.2 and 98.5; in data set [2] (setting [13]) it was 100.

`N=C(NC(=O)Cc1c(Cl)cccc1Cl)NC(=O)OC[C@@H](N)Cc1cnc[nH]1.O=C(O)C(F)(F)F.O=C(O)C(F)(F)F.O=C(O)C(F)(F)F` [Guanfacine-(S)-histidinyl carbamate Tri-trifluoroacetate]: the solubility in data set [1] (in DMSO) and in data set [1] (in water) was over 20000 µg/mL throughout. In addition, the Active drug was 1.7 and 1.8 in data set [2] (setting [6]); 0.5 and 0.6 in data set [2] (setting [7]); 1.2 and 1.3 in data set [2] (setting [8]); 0.4 and 0.5 in data set [2] (setting [9]); 87.1 and 88.1 in data set [2] (setting [10]); 1.6 and 1.4 in data set [2] (setting [11]). The Active drug in data set [2] (setting [12]) is 85.4 and 85.8. In addition, the Pro-drug in data set [2] (setting [6]) was 84.7 and 83.3; in data set [2] (setting [7]) it was 99.5 and 99.4; in data set [2] (setting [8]), 98.1 and 97.8; in data set [2] (setting [9]), 99.6 and 99.5; in data set [2] (setting [10]), 0.0; in data set [2] (setting [11]) it was 98.4 and 98.6. Moreover, the Pro-drug in data set [2] (setting [12]) is 0.0; in data set [2] (setting [13]) it was 99.2 and 98.1.

Source of the values: patent US20120065152A1 (SHIRE LLC, priority 2010, published 2012).
